# How the values were obtained:
# IL-1ß = test: Western blot of lumbar spinal cord, IL-1ß; assay type: in vivo, mice; conditions: SNI ipsilateral side, day 7 and 14
# Description: (§1) The lumbar spinal cord was removed 7 and 14 days after surgery and 90 min after the intranasal administration of SUM52, corresponding to the peack of the effect. Samples (n = 4 for groups) were homogenized in a homogenization buffer and processed as previously described. Protein samples (40 µg of protein/sample) were separated on 10% SDS-PAGE and transferred onto nitrocellulose membranes (120 min at 100 V) using standard procedures. Membranes were blocked in PBST (PBS containing 0.1% Tween) containing 5% nonfat dry milk for 120 min. […] Blots were then extensively washed and developed using enhanced chemiluminescence detection system (Pierce, Milan, Italy) and signal intensity (pixels/mm^2) quantified (ImageJ, NIH). […] For each sample, the signal intensity was normalized to that of total protein stained by Ponceau S and the acquired images were quantified using Image Lab software. […]
# SNI mice [1] = test: Rotarod test; assay type: in vivo; conditions: 50 µM i.n., vs vehicle-treated SNI mice
# Description: The possible alteration of motor performance induced by each treatment was assessed by rotarod test, as previously described. The integrity of motor coordination was assessed as number of falls from the rod in 30 s.
# SNI mice [2] = test: Mechanical allodynia (Dynamic Plantar Aesthesiometer) in SNI mice; assay type: in vivo
# Description: Mice were randomly assigned to each treatment group. […] Maria Novella Romanelli, iBET762 (molibresib; (4S)-6-(4-Chlorophenyl)-N-ethyl-8-methoxy-1-methyl-4H-[1,2,4]triazolo[4,3,a][1,4] benzodiazepine-4-acetamide, and SAHA (vorinostat; suberoylanilide hydroxamic acid) (Sigma-Aldrich, Italy) were administered 15 min before the tests. Drugs were dissolved in 5% DMSO. Drug concentrations were prepared in such a way that the necessary dose could be administered in a volume of 10 µl per mouse by intranasal (i.n.) administration. The experimental protocol to test the effect of treatments on behavioral and in vitro tests included 3 control groups: untreated, vehicle (5% DMSO), and saline.
# For i.n. administration, mice were slightly anesthetized by 2% isoflurane inhalation and placed in a supine position [30]. A 5 μl aliquot of solution (treatments or vehicle) was slowly dropped alternatively to each nostril with a micropipette tip.
# Behavioral testing was performed before surgery to establish a baseline for comparison with post-surgical values. Mono-neuropathy was induced by spared nerve injury and this model of pain in mice has been in use for several years [31]. The SNI procedure was performed as previously described [31].
# Animals were habituated to the testing environment daily for at least 2 days before baseline testing. To evaluate onset and progression of pain hypersensitivity, neuropathic mice were monitored by measuring nociceptive responses every 30 min for 3 h before surgery or 3, 7, 10, and 14 days after nerve surgery. Experiments were performed on post-surgery day 7 and 14 when the pain hypersensitivity was well established. Each mouse served as its own control, the responses being measured both before and after surgery. All testing was performed with a blind procedure.
# Mechanical allodynia was measured by using Dynamic Plantar Aesthesiometer (Ugo Basile, Bologna, Italy), as described [32]. Nociceptive response for mechanical sensitivity was expressed as mechanical paw withdrawal threshold (PWT) in grams. PWT was quantified by an observer blinded to the treatment.
# [3] = test system: p65 subunit of NF-kB (phosphorylated); test: Western blot of lumbar spinal cord, p-NF-kB p65; assay type: in vivo, mice; conditions: SNI ipsilateral side, day 7 and 14
# Description: as §1
# IL-6 = test: Western blot of lumbar spinal cord, IL-6; assay type: in vivo, mice; conditions: SNI ipsilateral side, day 7 and 14
# Description: as §1
# IBA1 (microglia marker) = test: Immunofluorescence of lumbar spinal cord, IBA1; assay type: in vivo; conditions: lumbar spinal cord of SNI mice, day 14
# Description: On postsurgical day 14, animals were perfused transcardially with 4% paraformaldehyde in 0.1 M phosphate buffer (PBS, pH 7.4). After perfusion, lumbar spinal cord was quickly removed and processed as previously described. Four animals per groups were used for this analysis. […] Primary antibody used was IBA1 (1:100; Santa Cruz Biotechnology Cat# sc-32725, RRID:AB_667733). After rinsing in PBS containing 0.01% Triton-X-100, sections were incubated in secondary antibodies labeled with Invitrogen Alexa Fluor 488 (490–525, 1:400; Thermo Fisher Scientific), Invitrogen Alexa Fluor 568 (578–603, 1:400; Thermo Fisher Scientific), Cruz Fluor 594 (592–614, 1:400; Santa Cruz Biotechnology) at room temperature for 2 h. Sections were coverslipped using Vectorshield mounting medium (Vector Laboratories, Burlingame, CA). A Leica DM6000B fluorescence microscope equipped with a DFC350FX digital camera with appropriate excitation and emission filters for each fluorophore was used to acquire representative images. Images were acquired with × 5 to × 40 objectives using a digital camera. The immunofluorescence intensity was calculated by ImageJ (Wayne Rasband, National Institute of Health, USA).
smiles,measurement,setting,value
"Cc1nnc2n1-c1ccccc1C(c1ccccc1)=N[C@H]2CC(=O)NCCCCCCC(=O)NO [SUM52, (S)-N-hydroxy-7-(2-(1-methyl-6-phenyl-4H-benzo[f][1,2,4]triazolo[4,3-a][1,4]diazepin-4-yl)acetamido)heptanamide]",IL-1ß expression,IL-1ß,drastically reduced
same,motor coordination (rotarod test),SNI mice [1],no alteration
same,"mechanical antiallodynic activity, ipsilateral side",SNI mice [2]; 10–100 µM i.n.,attenuated SNI-induced mechanical allodynia
same,duration of activity in attenuating mechanical allodynia compared with SUM35,SNI mice [2]; SUM52 50 µM vs SUM35 100 µM,more prolonged activity
same,efficacy in attenuating mechanical allodynia compared with SUM35,"SNI mice [2]; SUM52 50 µM vs SUM35 100 µM, day 7 and 14 post-surgery",higher efficacy
same,mechanical analgesic effect in the contralateral side,SNI mice [2]; contralateral (uninjured) side of SNI mice,absence
same,mechanical antiallodynic efficacy compared with SAHA + iBET762 combination,"SNI mice [2]; time-course comparison, combination i-BET762 10 µg, SAHA 3 µg",comparable efficacy
same,phosphorylation of the p65 subunit of NF-kB,[3],robustly reduced by SUM52 up to baseline values
same,IL-6 expression,IL-6,drastically reduced
same,IBA1 immunostaining,IBA1 (microglia marker),significantly reduced
